From patent US6416783B1, “Aspartic and malic acid inhibition of ss-glucuronidase” (Wisconsin Alumni Research Foundation, priority 1999, dated 2002)
Values joined by “and” are separate entries in the source; they are usually repeats but may differ in a detail not shown here. Equal entries are not always repeated. “Also recorded” adds a separate entry of the source. Where two headings read alike, the source gives them in different places. Blank lines part the entries; values can stand above or below the compound they belong to.

Target: T1, β-glucuronidase (Homo sapiens, UniProt P08236)
T1 construct: We used human breast milk collected and pooled from a newborn nursery as the β-glucuronidase source; from tissue
T1 sequence (P08236 23-651): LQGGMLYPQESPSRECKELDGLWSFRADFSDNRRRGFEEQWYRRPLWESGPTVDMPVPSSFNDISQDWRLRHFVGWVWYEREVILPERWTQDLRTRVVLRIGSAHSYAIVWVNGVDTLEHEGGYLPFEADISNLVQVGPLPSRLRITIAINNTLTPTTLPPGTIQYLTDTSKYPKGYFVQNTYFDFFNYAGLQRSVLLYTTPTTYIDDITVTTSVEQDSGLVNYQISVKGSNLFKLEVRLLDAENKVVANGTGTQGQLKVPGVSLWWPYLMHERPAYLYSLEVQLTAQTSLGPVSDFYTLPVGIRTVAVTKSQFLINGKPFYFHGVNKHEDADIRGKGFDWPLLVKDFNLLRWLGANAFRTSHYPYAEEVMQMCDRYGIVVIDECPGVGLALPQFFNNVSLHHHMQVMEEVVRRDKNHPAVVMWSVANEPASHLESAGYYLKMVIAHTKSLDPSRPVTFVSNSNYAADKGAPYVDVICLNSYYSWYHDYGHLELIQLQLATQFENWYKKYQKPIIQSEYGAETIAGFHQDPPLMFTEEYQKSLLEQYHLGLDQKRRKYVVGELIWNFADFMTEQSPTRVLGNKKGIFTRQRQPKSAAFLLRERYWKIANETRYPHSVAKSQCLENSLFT
Assay: Standard Test: β-glucuronidase activity of human breast milk with MUG substrate (fluorescence)
Format: biochemical
Conditions: for mean (X̄) activity / X (mean activity): mean of 3; for Activity (pmole/tube/hr) / β-glucuronidase activity (row unlabelled): single replicates; for concentration with significant β-glucuronidase inhibitory activity: tested 10 to 10,000 μM; for β-glucuronidase activity, % (of control): 0.1, 1, 10 mM; for X (mean activity) / β-glucuronidase activity (row unlabelled): in pmol/tube/h
Procedure: We first developed a standard assay procedure (the “Standard Test”). We used human breast milk collected and pooled from a newborn nursery as the β-glucuronidase source. The samples were stored at −20° C. The milk was thawed and diluted 10× with 0.2 M sodium acetate/glacial acetic acid (NaAC) buffer pH 4.5 just prior to being used. A 4.0 mM stock solution of 4-methylumbelliferyl β-D-glucuronide (MUG, Sigma M-9130 lot#75H3777) was prepared in 0.2 M NaAC buffer pH 4.5.
Triplicate test and blank tubes contained a reaction mixture consisting of 50 μL diluted breast milk and 50 μL of an inhibitor solution diluted with 0.2 M NaAC buffer pH 4.5. Controls were prepared that contained only 50 μL diluted breast milk and 50 μL 0.2 M NaAC buffer pH 4.5. The assay was started by adding 25 μl of the MUG (4.0 mM, 0.800 mM final concentration) to the test sample to start the reaction. The final volume of the reaction was 125 μL. Both blank and test samples were vortexed and incubated at 37° C. for 1 hour (or for shorter times if indicated).
The reaction was quenched in both the test and blank samples with 3.0 ml of glycine-carbonate (320 mM: 200 mM) buffer pH 10.0. The blank samples had 25 μl of the MUG (4.0 mM, 0.800 mM final) added to them and all tubes were vortexed.
The resulting fluorescence was read using a Perkin Elmer LS5-B fluorescence spectrophotometer (360 nm excitation, 445 nm emission, autorange scale). The amount of 4-methylumbelliferone (4-MU) released by the β-glucuronidase was calculated using a 4-MU quadratic standard curve and the Mathplot software. The velocity was calculated as pmoles of 4-MU formed per hour per ml undiluted breast milk.
We diluted pooled breast milk 20× with 0.2 M NaAC buffer pH 4.5. We diluted 2.2% w/v solution of Amicase (Sigma Cat. #A2427—a mixture of free amino acids with virtually no unhydrolyzed peptides, only minimal inorganic components are present, total nitrogen ˜12.8%, amino nitrogen ˜9.8%) with buffer 5×. We then incubated 50 μl milk with 50 μl buffer and Amicase. We then added 25 μl MUG to start the reaction. We then quenched with Na-carbonate buffer pH 10.0 and read fluorescence at 360 nm ex 445 nm em. Autorange scale. The mixture of amino acids was compared to controls and Nutramigen® as follows:
We then studied the effect of specific amino acid mixtures on β-glucuronidase activity. We diluted pooled breast milk 10× with 0.2 M NaAC buffer pH 4.5 and diluted 50×stock essential amino acid solution (Sigma Cat #M7020=L-arginine.HCl 6.32 g/L, L-cystine 1.2 g/L, L-histidine.HCl.H20 2.1 g/L, L-isoleucine 2.625 g/L, L-leucine 2.62 g/L, L-lyscine.HCl 3.625 g/L, L-methionine 0.755 g/L, L-phenylalanine 1.65 g/L, L-threonine 2.38 g/L, L-tryptophane 0.51 g/L, L-tyrosine 1.8 g/L, L-valine 2.34 g/L).
We also used a non-essential AA solution=Sigma Cat #M7145=L-alanine HCl 0.89 g/L, L-asparagine.H20 1.50 g/L, L-aspartic acid 1.33 g/L, L-glutamic acid 1.47 g/L, glycine 0.75 g/L, L-proline 1.15 g/L, L-serine 1.05 g/L.
We 5×diluted 100×stock essential AA solution. We incubated 50 μl diluted milk with 50 μl buffer (control), or the essential AA solution, or the non-essential AA solution, or Nutramigen® RTU, added 25 μl MUG to start the reaction, quenched with Na-carbonate buffer, and read fluorescence (360 nm excitation: 445 nm emission). The results are as follows:
We then analyzed inhibitory effect of each of the seven amino acids in the non-essential amino acid mixture. We diluted pooled breast milk 10× with 0.2 M NaAC buffer pH 4.5, and diluted Nutramigen® RTU (N) and Nutramigen® lipid-free supernatant (LFS) 5 fold with 0.2 M NaAC buffer pH 4.5.
We prepared stock solutions of each of the non-essential amino acids L-alanine (Ala), L-asparagine (Asn), L-aspartic acid (Asp), L-glutamic acid (Glu), glycine (Gly), L-proline (Pro), and L-Serine (Ser). All solutions were at pH 4.5. The final concentration of each amino acid in the assay was the same as when the amino acids were analyzed as a mixture. […]

[1] = Example 5, Conc. 10 μm, read-out: % (activity relative to control)
[2] = Example 5, Conc. 100 μm, read-out: % (activity relative to control)
[3] = Example 5, Conc. 1,000 μm, read-out: % (activity relative to control)
[4] = Example 5, Conc. 10,000 μm, read-out: % (activity relative to control)
[5] = Example 4, 0.1 mM, read-out: % (activity relative to control)
[6] = Example 4, 1 mM, read-out: % (activity relative to control)
[7] = Example 4, 10 mM, read-out: % (activity relative to control)

Compound: NC(=O)C[C@H](N)C(=O)O [Asn, L-asparagine]
remaining activity at 61.4 µg/mL (Example 3, 61.4 μg/ml, read-out: % (activity relative to control)): 97.8%
mean (X̄) activity (Example 3, 61.4 μg/ml): 659.2 pmole/tube/hr
Activity (pmole/tube/hr) (Example 3, 61.4 μg/ml): 663.2 pmole/tube/hr and 667.6 pmole/tube/hr and 646.7 pmole/tube/hr

Compound: N[C@@H](CC(=O)O)C(=O)O [Asp, L-aspartic acid]
effect on β-glucuronidase activity (in words): significantly inhibit β-glucuronidase; also recorded: significant β-glucuronidase inhibitory activity
remaining activity at 53.2 µg/mL (Example 3, 53.2 μg/ml, read-out: % (activity relative to control)): 73.7%
mean (X̄) activity (Example 3, 53.2 μg/ml): 496.5 pmole/tube/hr
Activity (pmole/tube/hr) (Example 3, 53.2 μg/ml): 494.8 pmole/tube/hr and 500.8 pmole/tube/hr and 493.9 pmole/tube/hr
potency in β-glucuronidase inhibition relative to D-aspartic acid (Example 5): approximately 100 times
remaining activity at 10 µM [1]: 97.4%
remaining activity at 100 µM [2]: 89.3%
remaining activity at 1000 µM [3]: 53%
remaining activity at 10000 µM [4]: 8.4%
mean (X̄) activity (Example 5, Conc. 10 μm): 693.9 pmole/tube/hr
mean (X̄) activity (Example 5, Conc. 100 μm): 636.4 pmole/tube/hr
mean (X̄) activity (Example 5, Conc. 1,000 μm): 377.5 pmole/tube/hr
mean (X̄) activity (Example 5, Conc. 10,000 μm): 60.2 pmole/tube/hr
Activity (pmole/tube/hr) (Example 5, Conc. 10 μm): 692.5 pmole/tube/hr and 705.8 pmole/tube/hr and 683.2 pmole/tube/hr
Activity (pmole/tube/hr) (Example 5, Conc. 100 μm): 641.0 pmole/tube/hr and 640.1 pmole/tube/hr and 628.0 pmole/tube/hr
Activity (pmole/tube/hr) (Example 5, Conc. 1,000 μm): 405.5 pmole/tube/hr and 378.0 pmole/tube/hr and 349.1 pmole/tube/hr
Activity (pmole/tube/hr) (Example 5, Conc. 10,000 μm): 62.7 pmole/tube/hr and 59.2 pmole/tube/hr and 58.6 pmole/tube/hr
concentration with significant β-glucuronidase inhibitory activity (Example 5): > 10 µM
pH of maximum inhibition of β-glucuronidase (pH experiments): ~5

Compound: O=C[C@H](O)[C@@H](O)[C@@H](O)[C@H](O)CO [D-gal, D(+)galactose]
remaining activity at 100 µM [5]: 99.1%
remaining activity at 1000 µM [6]: 99.2%
remaining activity at 10000 µM [7]: 99.2%
β-glucuronidase activity, % (of control) (Example 4): 99%
X (mean activity) (Example 4, 0.1 mM): 820.2
X (mean activity) (Example 4, 1 mM): 812.2
X (mean activity) (Example 4, 10 mM): 820.5
β-glucuronidase activity (row unlabelled) (Example 4, 0.1 mM): 816.8 and 812.8 and 830.9
β-glucuronidase activity (row unlabelled) (Example 4, 1 mM): 825.6 and 808.7 and 802.5
β-glucuronidase activity (row unlabelled) (Example 4, 10 mM): 806.6 and 833.7 and 821.3

Compound: N[C@@H](CCC(=O)O)C(=O)O [Glu, L-glutamic acid]
mean (X̄) activity (Example 3, 58.8 μg/ml): 660.0 pmole/tube/hr
Activity (pmole/tube/hr) (Example 3, 58.8 μg/ml): 658.8 pmole/tube/hr and 657.5 pmole/tube/hr and 663.7 pmole/tube/hr
remaining activity at 58.8 µg/mL (read-out: % (activity relative to control)): 97.9%

Compound: O=C(O)C[C@H](O)C(=O)O [L-malic acid]
effect on β-glucuronidase activity (in words): significantly inhibit β-glucuronidase; also recorded: contributed to the inhibition of β-glucuronidase at similar concentrations to L-aspartic acid

Compound: CC(=O)N[C@H]1C(O)O[C@H](CO)[C@H](O)[C@@H]1O (stereo partly drawn) [NAG, N-acetyl-D-galactosamine]
remaining activity at 100 µM [5]: 98.4%
remaining activity at 1000 µM [6]: 99.3%
remaining activity at 10000 µM [7]: 100%
β-glucuronidase activity, % (of control) (Example 4): 98-100%
X (mean activity) (Example 4, 0.1 mM): 814.1
X (mean activity) (Example 4, 1 mM): 821.6
X (mean activity) (Example 4, 10 mM): 827.9
β-glucuronidase activity (row unlabelled) (Example 4, 0.1 mM): 811.8 and 817.0 and 813.4
β-glucuronidase activity (row unlabelled) (Example 4, 1 mM): 805.6 and 850.0 and 809.3
β-glucuronidase activity (row unlabelled) (Example 4, 10 mM): 835.1 and 824.1 and 824.3

Compound: CC(=O)N[C@H]1[C@H]([C@H](O)[C@H](O)CO)OC(O)(C(=O)O)C[C@@H]1O (stereo partly drawn) [NAN, N-acetylneuraminic acid]
remaining activity at 100 µM [5]: 99.3%
remaining activity at 1000 µM [6]: 99.2%
remaining activity at 10000 µM [7]: 110%
β-glucuronidase activity, % (of control) (Example 4): 99-100%
X (mean activity) (Example 4, 0.1 mM): 821.9
X (mean activity) (Example 4, 1 mM): 820.5
X (mean activity) (Example 4, 10 mM): 905.7
β-glucuronidase activity (row unlabelled) (Example 4, 0.1 mM): 806.4 and 848.2 and 810.9
β-glucuronidase activity (row unlabelled) (Example 4, 1 mM): 829.9 and 827.6 and 803.9
β-glucuronidase activity (row unlabelled) (Example 4, 10 mM): 897.8 and 912.1 and 907.2

Further lines, with some results ahead:

remaining activity at 35.6 µg/mL (Example 3, 35.6 μg/ml, read-out: % (activity relative to control)): 99.5%
mean (X̄) activity (Example 3, 35.6 μg/ml): 671.0 pmole/tube/hr
Compound: C[C@H](N)C(=O)O [Ala, L-alanine]
Activity (pmole/tube/hr) (Example 3, 35.6 μg/ml): 686.2 pmole/tube/hr and 670.9 pmole/tube/hr and 656.0 pmole/tube/hr

remaining activity at 10 µM [1]: 98.4%
remaining activity at 100 µM [2]: 97.5%
remaining activity at 1000 µM [3]: 98.1%
remaining activity at 10000 µM [4]: 86.2%
mean (X̄) activity (Example 5, Conc. 10 μm): 701.0 pmole/tube/hr
mean (X̄) activity (Example 5, Conc. 100 μm): 694.8 pmole/tube/hr
mean (X̄) activity (Example 5, Conc. 1,000 μm): 699.2 pmole/tube/hr
mean (X̄) activity (Example 5, Conc. 10,000 μm): 614.7 pmole/tube/hr
concentration with significant β-glucuronidase inhibitory activity (Example 5): 10,000 μM
Compound: N[C@H](CC(=O)O)C(=O)O [D-asp, D-aspartic acid]
Activity (pmole/tube/hr) (Example 5, Conc. 10 μm): 706.2 pmole/tube/hr and 705.1 pmole/tube/hr and 691.7 pmole/tube/hr
Activity (pmole/tube/hr) (Example 5, Conc. 100 μm): 692.3 pmole/tube/hr and 709.8 pmole/tube/hr and 682.1 pmole/tube/hr
Activity (pmole/tube/hr) (Example 5, Conc. 1,000 μm): 704.2 pmole/tube/hr and 702.3 pmole/tube/hr and 691.2 pmole/tube/hr
Activity (pmole/tube/hr) (Example 5, Conc. 10,000 μm): 626.2 pmole/tube/hr and 614.9 pmole/tube/hr and 602.9 pmole/tube/hr

remaining activity at 30 µg/mL (Example 3, 30.0 μg/ml, read-out: % (activity relative to control)): 102%
mean (X̄) activity (Example 3, 30.0 μg/ml): 685.5 pmole/tube/hr
Compound: NCC(=O)O [Gly, glycine]
Activity (pmole/tube/hr) (Example 3, 30.0 μg/ml): 674.7 pmole/tube/hr and 695.4 pmole/tube/hr and 686.5 pmole/tube/hr
